Results as given in the supplement of paper PMC10627819.

Assays:
B. subtilis 168 [1] = assay: fitness (endpoint OD595 vs no drug) (fraction); higher = more growth
In short: (§1)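 With the first reading as background, OD595 was measured every 30 min for 14 h in 384-well plates kept at 37 °C and inoculated at OD595 0.01. TSB, LB Lennox or CY was the medium. Fitness is the optical density at the transition into stationary phase divided by the robust mean of no-drug control wells, with a cap of 1.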

S. pneumoniae D39V [2] = assay: as above
In short: as §1

B. subtilis 168 [3] = assay: Bliss interaction score (quartile over a dose matrix) (fitness difference); higher = more antagonism (negative = synergy)
In short: (§2)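 Quartiles summarise the Bliss score over technical, biological and donor/recipient replicates, where the score is observed minus expected fitness under a product model. Expected fitness uses single-drug values inferred from combination data. Fitness is OD595 at entry into stationary phase over the plate's robust no-drug mean, capped at 1.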

S. aureus DSM 20231 = assay: as above
In short: as §2

S. aureus Newman = assay: as above
In short: as §2

S. pneumoniae D39V [4] = assay: as above
In short: as §2
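Wherever Bliss interaction score (quartile over a dose matrix) is given: first quartile when negative (synergy) and third quartile when positive (antagonism).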

C[C@H]1COc2c(N3CCN(C)CC3)c(F)cc3c(=O)c(C(=O)O)cn1c23 [Levofloxacin] + Cc1cc(NS(=O)(=O)c2ccc(N)cc2)no1 [Sulfamethoxazol]
fitness, one replicate
Details | partner 0.5 µg/mL | partner 1 µg/mL | partner 2 µg/mL | partner 4 µg/mL
B. subtilis 168 [1], first compound 0.001 µg/mL | – | 0.98 | 0.98 | 0.929
B. subtilis 168 [1], first compound 0.002 µg/mL | 0.955 | – | – | 0.885
B. subtilis 168 [1], first compound 0.0039 µg/mL | 0.939 | – | – | 0.834
B. subtilis 168 [1], first compound 0.0078 µg/mL | 0.862 | 0.782 | 0.788 | –
S. pneumoniae D39V [2], first compound 0.2 µg/mL | – | 0.955 | 0.902 | 0.841
S. pneumoniae D39V [2], first compound 0.4 µg/mL | – | 0.854 | 0.87 | 0.771
S. pneumoniae D39V [2], first compound 0.8 µg/mL | – | 0.373 | 0.495 | 0.487

fitness
Details | partner 1 µg/mL | partner 2 µg/mL | partner 4 µg/mL
B. subtilis 168 [1], first compound 0.002 µg/mL | 0.867 | 0.881 | –
B. subtilis 168 [1], first compound 0.0039 µg/mL | 0.831 | 0.841 | –
B. subtilis 168 [1], first compound 0.0312 µg/mL | 0.0318 | 0.0375 | 0.0268
B. subtilis 168 [1], first compound 0.0625 µg/mL | 0.0358 | 0.0467 | 0.0289
B. subtilis 168 [1], first compound 0.125 µg/mL | 0.0382 | 0.0353 | 0.0242
S. pneumoniae D39V [2], first compound 0.1725 µg/mL | 0.935 | 0.972 | 0.967
S. pneumoniae D39V [2], first compound 0.345 µg/mL | 0.824 | 0.827 | 0.833
S. pneumoniae D39V [2], first compound 0.69 µg/mL | 0.455 | 0.461 | 0.498

Details | Bliss interaction score
B. subtilis 168 [3] | -0.0263
S. aureus DSM 20231 | -0.125
S. aureus Newman | 0.0779
S. pneumoniae D39V [4] | -0.0634

C[C@H]1COc2c(N3CCN(C)CC3)c(F)cc3c(=O)c(C(=O)O)cn1c23 [Levofloxacin] + Cc1ncc([N+](=O)[O-])n1CCO [Metronidazole]
fitness, B. subtilis 168 [1], one replicate
Details | first compound 0.001 µg/mL | first compound 0.002 µg/mL | first compound 0.0039 µg/mL
partner 0.625 µg/mL | 0.946 | 0.911 | 0.852
partner 1.25 µg/mL | 0.96 | 0.85 | 0.845
partner 2.5 µg/mL | 0.965 | 0.929 | 0.855

Details | fitness
B. subtilis 168 [1], first compound 0.0312 µg/mL, partner 0.625 µg/mL | 0.0462
B. subtilis 168 [1], first compound 0.0312 µg/mL, partner 1.25 µg/mL | 0.0567
B. subtilis 168 [1], first compound 0.0312 µg/mL, partner 2.5 µg/mL | 0.0324
B. subtilis 168 [1], first compound 0.0625 µg/mL, partner 0.625 µg/mL | 0.0491
B. subtilis 168 [1], first compound 0.0625 µg/mL, partner 1.25 µg/mL | 0.0521
B. subtilis 168 [1], first compound 0.0625 µg/mL, partner 2.5 µg/mL | 0.0541
B. subtilis 168 [1], first compound 0.125 µg/mL, partner 0.625 µg/mL | 0.0404
B. subtilis 168 [1], first compound 0.125 µg/mL, partner 1.25 µg/mL | 0.0466
B. subtilis 168 [1], first compound 0.125 µg/mL, partner 2.5 µg/mL | 0.0398
S. pneumoniae D39V [2], first compound 0.1725 µg/mL, partner 1.25 µg/mL | 0.985
S. pneumoniae D39V [2], first compound 0.1725 µg/mL, partner 2.5 µg/mL | 0.993
S. pneumoniae D39V [2], first compound 0.1725 µg/mL, partner 5 µg/mL | 0.976
S. pneumoniae D39V [2], first compound 0.2 µg/mL, partner 1.073 µg/mL | 0.95
S. pneumoniae D39V [2], first compound 0.2 µg/mL, partner 2.145 µg/mL | 0.91
S. pneumoniae D39V [2], first compound 0.2 µg/mL, partner 4.29 µg/mL | 0.899
S. pneumoniae D39V [2], first compound 0.345 µg/mL, partner 1.25 µg/mL | 0.903
S. pneumoniae D39V [2], first compound 0.345 µg/mL, partner 2.5 µg/mL | 0.92
S. pneumoniae D39V [2], first compound 0.345 µg/mL, partner 5 µg/mL | 0.931
S. pneumoniae D39V [2], first compound 0.4 µg/mL, partner 1.073 µg/mL | 0.873
S. pneumoniae D39V [2], first compound 0.4 µg/mL, partner 2.145 µg/mL | 0.85
S. pneumoniae D39V [2], first compound 0.4 µg/mL, partner 4.29 µg/mL | 0.819
S. pneumoniae D39V [2], first compound 0.69 µg/mL, partner 1.25 µg/mL | 0.7
S. pneumoniae D39V [2], first compound 0.69 µg/mL, partner 2.5 µg/mL | 0.704
S. pneumoniae D39V [2], first compound 0.69 µg/mL, partner 5 µg/mL | 0.686
S. pneumoniae D39V [2], first compound 0.8 µg/mL, partner 1.073 µg/mL | 0.765
S. pneumoniae D39V [2], first compound 0.8 µg/mL, partner 2.145 µg/mL | 0.765
S. pneumoniae D39V [2], first compound 0.8 µg/mL, partner 4.29 µg/mL | 0.71

Details | Bliss interaction score
B. subtilis 168 [3] | 0.0195
S. aureus DSM 20231 | -0.0575
S. aureus Newman | -0.0661
S. pneumoniae D39V [4] | 0.121

C[C@H]1COc2c(N3CCN(C)CC3)c(F)cc3c(=O)c(C(=O)O)cn1c23 [Levofloxacin] + Cc1onc(-c2ccccc2)c1C(=O)N[C@@H]1C(=O)N2[C@@H]1SC(C)(C)[C@@H]2C(=O)O [Oxacillin]
fitness, B. subtilis 168 [1], one replicate
Details | partner 0.0078 µg/mL | partner 0.0155 µg/mL | partner 0.031 µg/mL | partner 0.075 µg/mL | partner 0.15 µg/mL | partner 0.3 µg/mL
first compound 0.001 µg/mL | 0.942 | 0.965 | 0.932 | – | – | –
first compound 0.002 µg/mL | 0.898 | 0.936 | 0.876 | 0.476 | 0.0412 | 0.0517
first compound 0.0039 µg/mL | 0.832 | 0.849 | 0.741 | 0.416 | 0.038 | 0.0324
first compound 0.0078 µg/mL | – | – | – | 0.592 | 0.0582 | 0.0577

Details | fitness
B. subtilis 168 [1], first compound 0.0312 µg/mL, partner 0.002 µg/mL | 0.0448
B. subtilis 168 [1], first compound 0.0312 µg/mL, partner 0.004 µg/mL | 0.0387
B. subtilis 168 [1], first compound 0.0312 µg/mL, partner 0.008 µg/mL | 0.0483
B. subtilis 168 [1], first compound 0.0625 µg/mL, partner 0.002 µg/mL | 0.0429
B. subtilis 168 [1], first compound 0.0625 µg/mL, partner 0.004 µg/mL | 0.0548
B. subtilis 168 [1], first compound 0.0625 µg/mL, partner 0.008 µg/mL | 0.0559
B. subtilis 168 [1], first compound 0.125 µg/mL, partner 0.002 µg/mL | 0.0397
B. subtilis 168 [1], first compound 0.125 µg/mL, partner 0.004 µg/mL | 0.0414
B. subtilis 168 [1], first compound 0.125 µg/mL, partner 0.008 µg/mL | 0.0574
S. pneumoniae D39V [2], first compound 0.1725 µg/mL, partner 0.01 µg/mL | 0.972
S. pneumoniae D39V [2], first compound 0.1725 µg/mL, partner 0.02 µg/mL | 0.917
S. pneumoniae D39V [2], first compound 0.2 µg/mL, partner 0.01 µg/mL | 0.928
S. pneumoniae D39V [2], first compound 0.2 µg/mL, partner 0.02 µg/mL | 0.898
S. pneumoniae D39V [2], first compound 0.2 µg/mL, partner 0.04 µg/mL | 0.495
S. pneumoniae D39V [2], first compound 0.345 µg/mL, partner 0.01 µg/mL | 0.9
S. pneumoniae D39V [2], first compound 0.345 µg/mL, partner 0.02 µg/mL | 0.894
S. pneumoniae D39V [2], first compound 0.4 µg/mL, partner 0.01 µg/mL | 0.809
S. pneumoniae D39V [2], first compound 0.4 µg/mL, partner 0.02 µg/mL | 0.785
S. pneumoniae D39V [2], first compound 0.4 µg/mL, partner 0.04 µg/mL | 0.402
S. pneumoniae D39V [2], first compound 0.69 µg/mL, partner 0.01 µg/mL | 0.704
S. pneumoniae D39V [2], first compound 0.69 µg/mL, partner 0.02 µg/mL | 0.571
S. pneumoniae D39V [2], first compound 0.8 µg/mL, partner 0.04 µg/mL | 0.24

Details | Bliss interaction score
B. subtilis 168 [3] | -0.0169
S. aureus DSM 20231 | 0.0488
S. aureus Newman | 0.0619
S. pneumoniae D39V [4] | 0.11

CN(C)C(=O)C(CCN1CCC(O)(c2ccc(Cl)cc2)CC1)(c1ccccc1)c1ccccc1 [Loperamide] + CC1=C\[C@@H](O)CC(=O)Cc2nc(co2)C(=O)N2CCC=C2C(=O)O[C@H](C(C)C)[C@H](C)/C=C/C(=O)NC\C=C\1 [Virginiamycin M1]
Details | fitness
B. subtilis 168 [1], first compound 25 µg/mL, partner 0.0625 µg/mL | 0.809
B. subtilis 168 [1], first compound 25 µg/mL, partner 0.125 µg/mL | 0.745
B. subtilis 168 [1], first compound 25 µg/mL, partner 0.25 µg/mL | 0.755
B. subtilis 168 [1], first compound 50 µg/mL, partner 0.0625 µg/mL | 0.0261
B. subtilis 168 [1], first compound 50 µg/mL, partner 0.125 µg/mL | 0.0336
B. subtilis 168 [1], first compound 50 µg/mL, partner 0.25 µg/mL | 0.0356
B. subtilis 168 [1], first compound 100 µg/mL, partner 0.0625 µg/mL | 0.0228
B. subtilis 168 [1], first compound 100 µg/mL, partner 0.125 µg/mL | 0.0378
B. subtilis 168 [1], first compound 100 µg/mL, partner 0.25 µg/mL | 0.0328
S. pneumoniae D39V [2], first compound 17.14 µg/mL, partner 0.5 µg/mL | ≥ 1
S. pneumoniae D39V [2], first compound 17.14 µg/mL, partner 1 µg/mL | ≥ 1
S. pneumoniae D39V [2], first compound 17.14 µg/mL, partner 2 µg/mL | ≥ 1
S. pneumoniae D39V [2], first compound 20 µg/mL, partner 2 µg/mL | ≥ 1
S. pneumoniae D39V [2], first compound 34.28 µg/mL, partner 0.5 µg/mL | ≥ 1
S. pneumoniae D39V [2], first compound 34.28 µg/mL, partner 1 µg/mL | ≥ 1
S. pneumoniae D39V [2], first compound 34.28 µg/mL, partner 2 µg/mL | ≥ 1
S. pneumoniae D39V [2], first compound 40 µg/mL, partner 2 µg/mL | ≥ 1

fitness, S. pneumoniae D39V [2], one replicate
Details | partner 0.15 µg/mL | partner 0.3 µg/mL | partner 0.5 µg/mL | partner 1 µg/mL | partner 2 µg/mL
first compound 20 µg/mL | ≥ 1 | 0.999 | ≥ 1 | ≥ 1 | –
first compound 40 µg/mL | ≥ 1 | ≥ 1 | ≥ 1 | ≥ 1 | –
first compound 68.57 µg/mL | – | – | ≥ 1 | ≥ 1 | ≥ 1
first compound 80 µg/mL | ≥ 1 | ≥ 1 | 0.348 | 0.0702 | –

Details | Bliss interaction score
B. subtilis 168 [3] | -0.0999
S. aureus DSM 20231 | -0.211
S. aureus Newman | 0.0415
S. pneumoniae D39V [4] | 0.0883
